Measured values: patent US4983600A, “Heterocyclic compounds useful as 5-HT3 antagonists” (John Wyeth & Brother Limited, priority 1987, dated 1991)

Columns and labels:
[1] = potential anxiolytic activity: mouse exploratory activity in a two-compartment light/dark box; type: in vivo; conditions: mice, Student's unpaired t-test vs vehicle, *P<0.05, **P<0.01, ***P<0.001
Method: The compounds of the invention are tested for potential anxiolytic activity by a test procedure measuring mouse exploratory activity in a two-compartment light/dark box based upon the procedure of B Costall et al, Neuropharmacology, 1987, 26, 195-200 and J N Crawley et al, Pharmac. Biochem. Behav., 1980, 13, 167-170. The test involves observing groups of mice placed in an open topped box, one third of which is painted black and illuminated under a dim red light and partitioned from the remainder of the box which is painted white and brightly illuminated. Access between the two sections is via an opening in the centre of the partition. The groups of mice are treated with vehicle or test compound and various behavioural parameters of the animals are measured including the number of exploratory rearings made by the mice in each section and the number of times the mice cross lines marked on the floor of each section. For each treatment group the mean number of line crossings and rears in each section of the box are calculated. Differences between drug-treated groups and vehicle-treated controls are compared using Student's unpaired t-test. […] Test compounds are considered to be active if they induce a similar set of changes and, in particular, if they produce a significant (p<0.05) increase in rearing activity in the light section of the box.

5-HT3 receptors = target: T1, 5-HT3 receptors (Oryctolagus cuniculus, UniProt A0A5F9C9J3); assay: 5-HT3 antagonistic activity in the isolated right atrium of the rabbit heart; type: cell-based; conditions: 10^-5 M 5-HT, read-out: -log IC50 (chronotropic response to 10^-5 M 5-HT) (converted)
T1 construct: isolated right atrium of the rabbit heart; from tissue; host or cells: rabbit heart, isolated right atrium (sympathetic nerve terminals)
T1 sequence (A0A5F9C9J3 1-494): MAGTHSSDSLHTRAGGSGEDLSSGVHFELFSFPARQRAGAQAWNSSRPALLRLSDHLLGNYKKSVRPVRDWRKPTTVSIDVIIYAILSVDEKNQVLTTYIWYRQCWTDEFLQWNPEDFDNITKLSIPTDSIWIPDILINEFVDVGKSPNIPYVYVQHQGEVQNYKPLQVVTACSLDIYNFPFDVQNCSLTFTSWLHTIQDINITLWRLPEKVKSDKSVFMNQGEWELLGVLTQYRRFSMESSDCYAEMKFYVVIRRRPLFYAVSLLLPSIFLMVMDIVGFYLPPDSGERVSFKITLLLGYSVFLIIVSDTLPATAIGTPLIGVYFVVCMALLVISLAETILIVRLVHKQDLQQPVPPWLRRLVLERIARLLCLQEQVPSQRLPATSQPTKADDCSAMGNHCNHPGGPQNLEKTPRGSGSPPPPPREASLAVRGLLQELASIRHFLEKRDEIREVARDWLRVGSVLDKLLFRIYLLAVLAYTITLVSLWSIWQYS
Method: In particular they antagonise specific 5-hydroxytryptamine (5-HT) receptors in warm blooded animals. […] 5-HT3 -antagonists are also termed "antagonists of "neuronal" 5-hydroxytryptamine receptors" and "serotonin (5-hydroxytryptamine) M-receptor antagonists". Such compounds have been described as being useful inter alia in the treatment of migraine, emesis, anxiety, gastrointestinal disorders and as anti-psychotics.
The compounds of the invention are tested for 5-HT3 antagonistic activity in the isolated right atrium of the rabbit heart based upon the method of Fozard J. R., Naunyn-Schmiedeberg's Arch. Pharmacol., 1984, 326, 36-44. This procedure relies upon the ability of 5-HT to stimulate 5-HT3 receptors present on sympathetic nerve terminals in the heart, causing release of noradrenaline which evokes an increase in the spontaneous rate of beating. The antagonist potency is expressed as -log IC50 (where IC50 is the chronotropic response to 10^-5 M 5-HT by 50%)

[2] = 2.0 mg/kg s.c., standard anxiolytic

Structure (SMILES) | % Change Relative to Controls: Line Crossings ([1]; 0.1 mg/kg s.c.) | % Change Relative to Controls: Rears ([1]; 0.1 mg/kg s.c.) | % Change Relative to Controls: Line Crossings [1, 2] | % Change Relative to Controls: Rears [1, 2] | IC50 (5-HT3 receptors) [nM] | % Change Relative to Controls: Line Crossings ([1]; 1.0 mg/kg s.c.) | % Change Relative to Controls: Rears ([1]; 1.0 mg/kg s.c.)
O=C(Nc1cc(Cl)cc(Cl)c1)N[C@H]1CN2CCC1CC2 [Example 13, (R)-(+)-N-(1-Azabicyclo[2.2.2]octan-3-yl)-N'-(3,5-dichlorophenyl)urea] | +69% | +90% |  |  |  |  | 
CNC1=Nc2ccc(Cl)cc2C(c2ccccc2)=[N+]([O-])C1 [Chlordiazepoxide, reference compound] |  |  | +42% | +77% |  |  | 
COc1ccccc1C(=O)NC(=O)NC1CN2CCC1CC2 (stereo not shown) [Example 5, N-[[[1-Azabicyclo[2.2.2]octan-3-yl]amino]carbonyl]-2-methoxybenzamide] | +20% | +73% |  |  | 2.14 |  | 
O=C(Nc1cc(Cl)cc(Cl)c1)N[C@@H]1CN2CCC1CC2 [Example 12, (S)-(-)-N-(1-Azabicyclo[2.2.2]octan-3-yl)-N'-(3,5-dichlorophenyl)urea] |  |  |  |  | 0.501 | +42% | +75%
O=C(Nc1cc(Cl)cc(Cl)c1)NC1CN2CCC1CC2 (stereo not shown) [Example 1] | +40% | +85% |  |  | 5.01 |  | 
